Test results reported in patent EP4168130B1, “USE OF INDOLE COMPOUNDS FOR TREATING SIGNS OF SKIN AGING” (Unilever IP Holdings B.V., priority 2020, dated 2021).

Test system: primary adult human dermal fibroblasts (HDFs)
Assay: High-throughput compound screen for selective elimination of senescent cells (cell viability, Hoechst 33342 / SYTOX Green high content imaging) in early proliferating (EP) and deeply senescent (DS) fibroblasts
Type: cell-based
Set-up: key: senolytic: EP cell viability above the 89% EP threshold and DS cell viability below the 87% DS threshold for at least one concentration of the three serial concentrations; prolifolytic: test compounds which decreased EP cell viability below the 89% EP threshold but did not decrease DS cell viability below 87%; cytotoxic: Test compounds which decreased both EP and DS cell viability below their respective thresholds; non-toxic: test compounds which maintained both EP and DS viability above their respective thresholds
Settings: three serial concentrations, 48 hours incubation, read-out five days post compound addition, thresholds 89% EP, 87% DS, for at least one concentration
Experimental: Actinomycin D, a drug widely reported to induce apoptosis in multiple cell types, was optimised for use as a positive 'senolytic control' for the high-throughput compound screen in EP (0.02µM) and DS (0.2µM) HDFs.
In order to perform the high-throughput screen of the test compounds a thorough validation process of the assay was undertaken prior to experimental screening. For both EP and DS HDFs, the following steps were optimised: optimisation of cell seeding densities in 384-well plate format; validation and optimisation of Actinomycin D positive and DMSO-vehicle negative controls; optimisation of high-throughput image acquisition and high content analysis of Hoechst 33342 (ThermoFisher, UK) in combination with SYTOX Green (ThermoFisher, UK) using the INCell 2200 microscope (GE, UK) for cell death phenotypic read-outs; optimisation of liquid handling system protocols; plate uniformity assessments; and a "dry run" of all components in the assay. […]
Following successful high-throughput compound screening of the test compounds in both EP and DS HDFs, a number of post-screen quality control checks were employed prior to hit detection. First, negative and positive control inter- and intra-plate cell number variability was assessed in order to identify potential systemic issues. […]

O=C(O)Cn1ccc2ccccc21 [1-indoleacetic acid]
hit classification based on EP and DS cell viability: senolytic
